For this assay, the target named is T1, GSK-3β (Homo sapiens, UniProt P49841).
T1 construct: GST (N, cleaved yes); made in house; host or cells: Escherichia coli BL21-Codon Plus (DE3)
T1 sequence (P49841 whole entry): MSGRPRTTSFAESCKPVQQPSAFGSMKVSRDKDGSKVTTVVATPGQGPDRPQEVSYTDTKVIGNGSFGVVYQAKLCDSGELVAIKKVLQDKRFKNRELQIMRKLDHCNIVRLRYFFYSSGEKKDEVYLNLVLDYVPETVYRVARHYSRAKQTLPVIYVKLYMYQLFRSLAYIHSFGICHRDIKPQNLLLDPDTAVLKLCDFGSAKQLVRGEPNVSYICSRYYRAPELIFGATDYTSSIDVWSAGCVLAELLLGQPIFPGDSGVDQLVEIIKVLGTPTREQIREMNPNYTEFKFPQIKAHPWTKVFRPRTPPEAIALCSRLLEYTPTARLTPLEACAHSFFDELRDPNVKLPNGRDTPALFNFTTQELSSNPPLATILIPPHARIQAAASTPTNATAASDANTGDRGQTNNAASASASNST
Briefly: GSK-3β kinase assay (Z'-LYTE Kinase Assay kit Ser/Thr 9 Peptide). The class given is biochemical. The following applies: 50 nM enzyme, 30 μM ATP, 2 μM substrate peptide; triplicate; mean ± SE; read-out: GSK-3β inhibitory activity IC50 (nM) ± SE. As for the experimental part: GSK3β belongs to CMGC family. Here, the other family members were used to evaluate the selectivity of GSK3β inhibitors, including PKC-epsilon (AGC family), JAK2 (TK family), Braf (TKL family), DRAK2 (CAMK family) and IKKβ (other family).The recombinant GST-GSK-3βprotein was expressed in Escherichia coli strain BL21-Codon Plus (DE3), purified by GSTrap affinity chromatography, and cleaved by thrombin. The GSK-3β kinase assay was carried out with the Z´-LYTETM Kinase Assay kit Ser/Thr 9 Peptide substrate (Invitrogen, Grand, NY, USA) in 10 μL reaction volume containing 50 nM enzyme, 30 μM ATP and 2 μM substrate peptide. Drak2 Proteins were presented by professor Jiang-ping Wu (Laboratory of Immunology, Research Centre, CHUM, Notre Dame Hospital, Pavilion DeSève). The Drak2 kinase reaction was performed in a final assay volume of 3.4 μL using the ADP-GLO Kinase Assay Kit (Promega, Madison, WI, USA), according the ADP-GLO protocol and read on an EnVision plate reader. The recombinant PKC-epsilon, IKKβ, and JAK2 with N-terminal His-tag were expressed using baculovirus expression system and purified with Ni-Beads. BRAF protein was from Carna Biosciences, Inc. (Kobe Port Island, Japan). And the related kinase reactions were performed in a final assay volume of 10 μL using the related HTRF Assay Kit (Cisbio, Codolet, France). Reactions were according the HTRF protocol and read on an EnVision plate reader. All reactions were carried out in triplicate. […] Data were expressed as mean ± SE.
In general, IC50 refers to the concentration at which inhibition is half-maximal. Regarding `O=C1NC(=O)C(c2cn(CCCCn3ccnc3)c3ccccc23)=C1c1noc2ccccc12` [7k, 3-(1-(4-(1H-Imidazol-1-yl)butyl)-1H-indol-3-yl)-4-(benzo[d]isoxazol-3-yl)-1H-pyrrole-2,5-dione], the IC50 is 89.8 ± 4.5 nM.

For the compound `CCCCn1cc(C2=C(c3noc4ccccc34)C(=O)NC2=O)c2ccccc21` [7p, 3-(Benzo[d]isoxazol-3-yl)-4-(1-butyl-1H-indol-3-yl)-1H-pyrrole-2,5-dione], the IC50 was 58.7 ± 2.8 nM.

On to `O=C1NC(=O)C(c2noc3ccccc23)=C1c1c[nH]c2ccccc12` [7a, 3-(Benzo[d]isoxazol-3-yl)-4-(1H-indol-3-yl)-1H-pyrrole-2,5-dione], for which the IC50 was 332 ± 25.7 nM.

With `O=C1NC(=O)C(c2cn(CCCN3CCCCC3)c3ccccc23)=C1c1noc2ccccc12` [7m, 3-(Benzo[d]isoxazol-3-yl)-4-(1-(3-(piperidin-1-yl)propyl)-1H-indol-3-yl)-1H-pyrrole-2,5-dione], the IC50 was found to be 512 ± 15.6 nM.

`O=C1NC(=O)C(c2cn(CCN3CCOCC3)c3ccccc23)=C1c1noc2ccccc12` [7g, 3-(Benzo[d]isoxazol-3-yl)-4-(1-(2-morpholinoethyl)-1H-indol-3-yl)-1H-pyrrole-2,5-dione]: the IC50 was found to be 615.6 ± 6.1 nM.

For `O=C1NC(=O)C(c2cn(CCCN3CCOCC3)c3cc(Br)ccc23)=C1c1noc2ccccc12` [7d, 3-(Benzo[d]isoxazol-3-yl)-4-(6-bromo-1-(3-morpholinopropyl)-1H-indol-3-yl)-1H-pyrrole-2,5-dione], the IC50 amounted to 210 ± 8.9 nM.

In the case of `O=C1NC(=O)C(c2cn(CCCCN3CCOCC3)c3ccccc23)=C1c1noc2ccccc12` [7i, 3-(Benzo[d]isoxazol-3-yl)-4-(1-(4-morpholinobutyl)-1H-indol-3-yl)-1H-pyrrole-2,5-dione], the IC50 is 411 ± 8.2 nM.

As to `O=C1NC(=O)C(c2cn(CCCN3CCOCC3)c3ccccc23)=C1c1noc2ccccc12` [7h, 3-(Benzo[d]isoxazol-3-yl)-4-(1-(3-morpholinopropyl)-1H-indol-3-yl)-1H-pyrrole-2,5-dione], the IC50 came out at 138 ± 6 nM.

With `O=C1NC(=O)C(c2cn(CCCN3CCOCC3)c3cc(Cl)ccc23)=C1c1noc2ccccc12` [7e, 3-(Benzo[d]isoxazol-3-yl)-4-(6-chloro-1-(3-morpholinopropyl)-1H-indol-3-yl)-1H-pyrrole-2,5-dione], the concentration for half-maximal inhibition (IC50) stood at 510 ± 20.1 nM.

Consider `O=C1NC(=O)C(c2cn(CCCn3cncn3)c3ccccc23)=C1c1noc2ccccc12` [7l, 3-(1-(3-(1H-1,2,4-Triazol-1-yl)propyl)-1H-indol-3-yl)-4-(benzo[d]isoxazol-3-yl)-1H-pyrrole-2,5-dione], for which the IC50 amounted to 20.9 ± 5.1 nM.

Take `COc1ccc2c(c1)c(C1=C(c3noc4ccccc34)C(=O)NC1=O)cn2CCCN1CCOCC1` [7b, 3-(Benzo[d]isoxazol-3-yl)-4-(5-methoxy-1-(3-morpholinopropyl)-1H-indol-3-yl)-1H-pyrrole-2,5-dione]: the IC50 came to 357 ± 17.1 nM.

In the case of `O=C1NC(=O)C(c2cn(CCCN3CCCC3)c3ccccc23)=C1c1noc2ccccc12` [7n, 3-(Benzo[d]isoxazol-3-yl)-4-(1-(3-(pyrrolidin-1-yl)propyl)-1H-indol-3-yl)-1H-pyrrole-2,5-dione], the IC50 turned out to be 659 ± 15.7 nM.

For `O=C1NC(=O)C(c2cn(CCCO)c3ccccc23)=C1c1noc2ccccc12` [7q, 3-(Benzo[d]isoxazol-3-yl)-4-(1-(3-hydroxypropyl)-1H-indol-3-yl)-1H-pyrrole-2,5-dione], the IC50 is 38.9 ± 2.6 nM.
